Assay results taken from patent US20230210999A1, “TARGETED PROTEASE DEGRADATION (TED) PLATFORM” (EUBULUS BIOTHERAPEUTICS INC., priority 2020, published 2023).

Key:
[1] = test system: MV4;11 cells; assay: Cell proliferation experiment (Alamar blue, 72 h), MV4;11; type: cell-based, human; settings: Homo sapiens, MV4-11, 72 h, MV4;11 cells, 72 h; read-out: Inhibitory activity IC50 of tested compounds on MV4;11 cells
In short: (§1)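 Viability measured by Alamar blue fluorescence after 72 h culture with compound (5-fold serial dilutions, two wells each) added to log-phase cells. IC50 derived from a Min/Max/Slope logistic equation.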

[2] = test system: HL-60 cells; assay: Cell proliferation experiment, HL-60; type: cell-based; settings: Homo sapiens, 72 h, read-out: Inhibitory activity IC50 of tested compounds on HL-60 cells
Procedure: (§2) Reagents: RPMI-1640 medium, McCoy's 5A medium, IMDM medium, MEM medium, L-15 medium, fetal bovine serum. Penicillin-Streptomycin double antibody, trypsin, etc., 2-mercaptoethanol, NEAA, pyruvate, etc.
(§3) The cells were cultured in conventional ways, and the cells should be passed at least 2 generations before plating. Cells at the logarithmic growth phase were collected, prepared into single cell suspensions and counted. The concentration of cells was adjusted to the desired concentration, and cells were inoculated into a 96-well cell culture plate at 100 μl per well. 100 μL of complete medium of the test compound were added to each well, set up 2 duplicate wells for each concentration, and diluted with a 5-fold gradient, and continued to culture for 72 h. All cells were subjected to IC50 test for corresponding samples. The experimental results are shown in Test Example 4.
(§4) The fluorescence intensity of each well was detected using the Alarm blue method, and IC50 was calculated.
(§5) IC50 was calculated according to the following formula:
(§6) Y=Max+(Min−Max)/[1+(X/IC50)×Slope]
(§7) wherein Min, Max and Slope represent the minimum, maximum and slope respectively.

[3] = test system: Daudi cells; assay: Cell proliferation experiment, Daudi; type: cell-based, human; settings: Homo sapiens, Daudi, 72 h, Daudi cells, 72 h; read-out: Inhibitory activity IC50 of tested compounds on Daudi cells
In short: as §1

[4] = test system: NCIH82 cells; assay: Cell proliferation experiment, NCI-H82; type: cell-based, human; settings: Homo sapiens, NCI-H82, 72 h, NCIH82 cells, 72 h; read-out: Inhibitory activity IC50 of tested compounds on NCIH82 cells
In short: as §1

[5] = test system: HT-29 cells; assay: Cell proliferation experiment, HT-29; type: cell-based; settings: Homo sapiens; HT-29 cells, 72 h; read-out: Inhibitory activity IC50 of tested compounds on HT-29 cells
In short: as §1

[6] = test system: U-87MG cells; assay: Cell proliferation experiment, U-87MG; type: cell-based; settings: Homo sapiens; U-87MG cells, 72 h; read-out: Inhibitory activity IC50 of tested compounds on U-87MG cells
In short: as §1

[7] = test system: THP-1 cells; assay: Cell proliferation experiment, THP-1; type: cell-based; settings: Homo sapiens, 72 h, read-out: Inhibitory activity IC50 of tested compounds on THP-1 cells
Procedure: as §2, §3, §4, §5, §6, §7

[8] = test system: Hela cells; assay: Cell proliferation experiment, Hela; type: cell-based; settings: Homo sapiens, 72 h, read-out: Inhibitory activity IC50 of tested compounds on Hela cells
Procedure: as §2, §3, §4, §5, §6, §7

[9] = test system: MDA-MB-231 cells; assay: Cell proliferation experiment, MDA-MB-231; type: cell-based, human; settings: Homo sapiens, MDA-MB-231, 72 h, MDA-MB-231 cells, 72 h; read-out: Inhibitory activity IC50 of tested compounds on MDA-MB-231 cells
In short: as §1

[10] = test system: MOL4-4 cells; assay: Cell proliferation experiment, MOL4-4; type: cell-based; settings: Homo sapiens, 72 h, read-out: Inhibitory activity IC50 of tested compounds on MOL4-4 cells
Procedure: as §2, §3, §4, §5, §6, §7

[11] = test system: HUVEC cells; assay: Cell proliferation experiment, HUVEC; type: cell-based; settings: Homo sapiens, 72 h, read-out: Inhibitory activity IC50 of tested compounds on HUVEC cells
Procedure: as §2, §3, §4, §5, §6, §7

Structure (SMILES)	IC50 [1]	IC50 [2]	IC50 [3]	IC50 [4]	IC50 [5]	IC50 [6]	IC50 [7]	IC50 [8]	IC50 [9]	IC50 [10]	IC50 [11]
CC[C@@H]1C(=O)N(C)c2cnc(Nc3ccc(C(=O)NC4CCN(CCOCCNCCC#Cc5cccc6c5CN(C5CCC(=O)NC5=O)C6=O)CC4)cc3OC)nc2N1C1CCCC1 (stereo partly drawn) [Compound 874]	≤ 100 nM	≤ 1000 nM	100 to 1000 nM	≤ 1000 nM	300 to 1000 nM	100 to 500 nM	≤ 1000 nM				
CC[C@@H]1C(=O)N(C)c2cnc(Nc3ccc(C(=O)NCCCOCCOCCCN(C)CCC#Cc4cccc5c4CN(C4CCC(=O)NC4=O)C5=O)cc3OC)nc2N1C1CCCC1 (stereo partly drawn) [Compound 883]	≤ 100 nM	≤ 1000 nM	≤ 100 nM	≤ 1000 nM	300 to 1000 nM	≤ 100 nM	≤ 1000 nM	≤ 1000 nM	≤ 500 nM	≤ 100 nM	≤ 1000 nM
CC[C@@H]1C(=O)N(C)c2cnc(Nc3ccc(C(=O)NCCCN(C)CCOCCCC#Cc4cccc5c4CN(C4CCC(=O)NC4=O)C5=O)cc3OC)nc2N1C1CCCC1 (stereo partly drawn) [Compound 884]	≤ 100 nM	≤ 1000 nM	≤ 100 nM	≤ 1000 nM	300 to 1000 nM	≤ 100 nM	≤ 1000 nM	≤ 1000 nM	≤ 500 nM	≤ 100 nM	≤ 1000 nM

Continued, in another order:

IC50 [1]	IC50 [2]	IC50 [3]	IC50 [4]	IC50 [5]	IC50 [6]	IC50 [7]	IC50 [8]	IC50 [9]	Structure (SMILES)	IC50 [10]	IC50 [11]
≤ 100 nM	≤ 1000 nM	≤ 100 nM	≤ 1000 nM	300 to 1000 nM	100 to 500 nM	≤ 1000 nM	≤ 1000 nM	≤ 500 nM	CC[C@@H]1C(=O)N(C)c2cnc(Nc3ccc(C(=O)NCCCOCCNCCC#Cc4cccc5c4CN(C4CCC(=O)NC4=O)C5=O)cc3OC)nc2N1C1CCCC1 (stereo partly drawn) [Compound 888]	≤ 100 nM	≤ 1000 nM
≤ 100 nM	≤ 1000 nM	≤ 100 nM	≤ 1000 nM	≤ 300 nM	≤ 100 nM	≤ 1000 nM	≤ 1000 nM	≤ 500 nM	CC[C@@H]1C(=O)N(C)c2cnc(Nc3ccc(C(=O)NC4CCC(N5CCN(CCC#Cc6cccc7c6CN(C6CCC(=O)NC6=O)C7=O)CC5)CC4)cc3OC)nc2N1C1CCCC1 (stereo partly drawn) [Compound 889]	≤ 100 nM	≤ 1000 nM
≤ 100 nM	≤ 1000 nM	≤ 100 nM	≤ 1000 nM	≤ 300 nM	≤ 100 nM		≤ 1000 nM	≤ 500 nM	CC[C@@H]1C(=O)N(C)c2cnc(Nc3ccc(C(=O)NCCCOCCNCCOCCC#Cc4cccc5c4CN(C4CCC(=O)NC4=O)C5=O)cc3OC)nc2N1C1CCCC1 (stereo partly drawn) [Compound 893]		≤ 1000 nM
